Here are results for six compounds from patent publication US4596829A, “7-acylaminocephalosporanic acid derivatives and processes for the preparation thereof” (Fujisawa Pharmaceutical Co., Ltd., priority 1980, dated 1986).

≈ marks a conversion by molar mass, not a printed value.

Assay [1] deals with Pseudomonas aeruginosa NCTC-10490. Put plainly: in vitro antimicrobial activity, two-fold agar-plate dilution method (MIC). In kind it is cell-based. The following applies: NCTC10490, heart infusion agar, 37° C., 20 hours. The method, then:
(§1) In vitro antimicrobial activity was determined by the two-fold agar-plate dilution method as described below.
(§2) One loopful of an overnight culture of each test strain in Tripticase-soy broth (approximately 10^8 viable cells per ml) was streaked on heart infusion agar (HI-agar) containing graded concentrations of antimicrobial agents, and the minimal inhibitory concentration (MIC) was expressed in term of μg/ml after incubation at 37° C. for 20 hours.

In assay [2] the test system is Proteus vulgaris IAM-1025. Described as above. The following applies: IAM1025, heart infusion agar, 37° C., 20 hours. Type of assay: cell-based. As for the experimental part:
as §1, §2

A word on the MIC: it is the lowest concentration found to suppress growth. For the compound `CC(O/N=C(\C(=O)NC1C(=O)N2C(C(=O)O)=CCSC12)c1nc(N)sc1Cl)C(=O)O` (stereo not drawn) [Compound 1, 7-[2-(2-amino-5-chlorothiazol-4-yl)-2-(1-carboxyethoxyimino)acetamido]-3-cephem-4-carboxylic acid (syn isomer)], the minimal inhibitory concentration (MIC) in assay [1] came out at 0.78 µg/mL (≈ 1.64 µM); in assay [2] it was 0.05 µg/mL (≈ 0.105 µM).
The like results for `C#CCO/N=C(\C(=O)NC1C(=O)N2C(C(=O)O)=C(CSc3nncs3)CSC12)c1nc(N)sc1Cl` (stereo not drawn) [Compound 2, 7-[2-(2-amino-5-chlorothiazol-4-yl)-2-propargyloxyiminoacetamido]-3-(1,3,4-thiadiazol-2-yl)thiomethyl-3-cephem-4-carboxylic acid (syn isomer)] were, in that order, 0.78 µg/mL (≈ 1.36 µM) and 1.56 µg/mL (≈ 2.73 µM).
Take `Nc1nc(/C(=N/OCC(=O)O)C(=O)NC2C(=O)N3C(C(=O)O)=C(CSc4nncs4)CSC23)c(Cl)s1` (stereo not drawn) [Compound 3, 7-[2-(2-amino-5-chlorothiazol-4-yl)-2-carboxymethoxyiminoacetamido]-3-(1,3,4-thiadiazol-2-yl)thiomethyl-3-cephem-4-carboxylic acid (syn isomer)]: the figures for the MIC in assay [1] and in assay [2] were 0.78 µg/mL (≈ 1.32 µM) and 0.025 µg/mL (≈ 0.0422 µM), respectively.
On to `C=CCO/N=C(\C(=O)NC1C(=O)N2C(C(=O)O)=C(CSc3nncs3)CSC12)c1nc(N)sc1Cl` (stereo not drawn) [Compound 4, 7-[2-(2-amino-5-chlorothiazol-4-yl)-2-allyloxyiminoacetamido]-3-(1,3,4-thiadiazol-2-yl)thiomethyl-3-cephem-4-carboxylic acid (syn isomer)], for which the MIC in assay [1] is 0.78 µg/mL (≈ 1.36 µM); in assay [2] it was 1.56 µg/mL (≈ 2.72 µM).
For `Nc1nc(/C(=N/OC2C=CCC2)C(=O)NC2C(=O)N3C(C(=O)O)=C(CSc4nncs4)CSC23)c(Cl)s1` (stereo not drawn) [Compound 5, 7-[2-(2-amino-5-chlorothiazol-4-yl)-2-(2-cyclopenten-1-yl)oxyiminoacetamido]-3-(1,3,4-thiadiazol-2-yl)thiomethyl-3-cephem-4-carboxylic acid (syn isomer)] the same measures were 0.39 µg/mL (≈ 0.65 µM) and 0.39 µg/mL (≈ 0.65 µM).
For `Nc1nc(/C(=N/OCC(=O)O)C(=O)NC2C(=O)N3C(C(=O)O)=C(Cl)CSC23)c(Cl)s1` (stereo not drawn) [Compound 6, 7-[2-(2-amino-5-chlorothiazol-4-yl)-2-carboxymethoxyiminoacetamido]-3-chloro-3-cephem-4-carboxylic acid (syn isomer)] the same measures were 0.78 µg/mL (≈ 1.57 µM) and 0.05 µg/mL (≈ 0.101 µM).
